Assays:
α4β2γ2 receptors = assay: Whole cell patch clamp of GABA-gated current, recombinant receptors in HEK-293 cells; type: cell-based, human or mouse α4, rat β2, rat γ2; details: 30 nM THP
Source text: (§1) Recombinant receptors: Transfection—Plasmids obtained from S. Vicini (rat α1, α5, β2, β3 and γ2), P. Whiting (human α4 and δ) and N. L. Harrison (mouse α4) were propagated in E coli DH5α and prepared using Qiagen Maxi- or Midi-prep kits. (Rat, mouse and human α1, β2, β3 and γ2 subunits are identical or nearly identical.) All receptors were transfected at a 1:1:1 ratio, except α1β2γ2 (1:1:5)^12, α4βδ (5:1:5)^13 and α4β2γ2 (5:1:1). HEK-293 cells were maintained in medium (DMEM:Ham's F-12 1:1) supplemented with 10% fetal calf serum at 37° C. in a humid 5% CO2 atmosphere. Cells were transfected using calcium phosphate or Polyfect (Qiagen) and co-transfected with enhanced green fluorescent protein (ratio of DNA to eGFP was 6:1 or 10:1 depending on the DNA concentration) for visualization. α4-containing GABAA receptors required 2-3 d for maximal levels of expression; all other receptors were recorded 1-2 d after transfection. Because mouse α4 and human α4-containing receptors yielded the same results, the currents were averaged together.
(§2) Whole cell patch clamp recording—GABA-gated currents were recorded at room temperature (20-22° C.) at a holding potential of −50 mV^14. […] Currents were recorded using an Axopatch 1D amplifier (Axon Instruments) filtered at 2 kHz (four-pole Bessel filter) and detected at 10 kHz (pClamp 5.1). […]

[1] = system: CA1 hippocampal pyramidal cells; assay: Input resistance and neuronal excitability (spiking), hippocampal slice; type: cell-based, mouse
Procedure: Tonic current was recorded as the difference current produced by 120 μM gabazine, which blocks all GABAA receptor, before and after 30 nM THP^24. Current was also recorded in response to 2 s 10 mV steps in the holding potential, and current-voltage curves generated to the steady-state current. Because fast-inactivating conductances would not be excluded in a voltage ramp, stable steady-state current responses were used instead to construct the current-voltage (IV) curves. Input resistance (Rm) was calculated from the current response to voltage steps from −60 to −40 mV using Ohm's Law. The reversal potential was determined by the […] of the IV curve (−90 to −10 mV). The gabazine-sensitive slope conductance was assessed as the slope of the linear portion of outward current plot recorded before and after THP after subtraction of the gabazine-generated current (in the presence of L-655,708 to block α5-GABAA receptors). Only data with a stable baseline and pipet access resistance <10 MΩ were included in the analysis.
Effects of THP on cell excitability were tested by monitoring spiking using cell attached patch recordings^31 in voltage clamp mode (−40 mV holding potential, 150 mM NaCl intrapipet solution) or assessing the current threshold to spiking and spike frequency in current clamp mode (0.01-0.3 nA steps, starting from −1 nA, 1 s duration). (More complete details are supplied in the Supplementary Methods.)

α4β3δ receptors = assay: Whole cell patch clamp of GABA-gated current, recombinant receptors in HEK-293 cells; type: cell-based, human or mouse α4, rat β3, human δ; details: 30 nM THP
Source text: as §1, §2

[2] = puberty, whole cell current clamp

`CC(=O)[C@H]1CC[C@H]2[C@@H]3CC[C@H]4C[C@H](O)CC[C@]4(C)[C@H]3CC[C@]12C` [THP, 3α-OH-5α[β]-pregnan-20-one] was tested, and the “effect on outward current” value (α4β2γ2 receptors) was “either increased or had no effect”, the “increase of input resistance” value ([1]; 30 nM THP, puberty, 10 mV steps −60 to −40) was 38±5% and the “effect on input resistance” value ([1]; before puberty) was “decreased input resistance”. For the same molecule, the “effect on neuronal excitability” value ([1]; before puberty) was “decreased neuronal excitability”, the “effect on spiking, cell-attached” value ([1]; puberty) was “increased spiking” and the “effect on action potential frequency” value [1, 2] was “increased action potential frequency”. For the same molecule, the “effect on current threshold for spiking (I threshold)” value [1, 2] was “reduced the amount of current necessary for triggering a spike”, the “THP-induced increase of input resistance” value ([1]; slices from δ−/− mice) was “not seen” and the “excitatory effect on neuronal firing” value ([1]; slices from δ−/− mice) was “not observed”. For the same molecule, the “effect on outward current” value (α4β3δ receptors) was “either increased or had no effect”.

Reference: patent US20090269795A1, “Mutant alpha4betadelta GABAA receptor and methods of treating anxiety or irritability” (priority 2007, published 2009)
